# US20220378790A1, “PHARMACEUTICAL PREPARATION COMPRISING AN AMIDE DERIVATIVE INHIBITING THE GROWTH OF CANCER CELL AND A PHARMACEUTICAL PRODUCT CONTAINING THE SAME” (Hanmi Pharm Co., Ltd., priority 2019, published 2022)
# Assay: Stability test at 60° C. severe condition, impurity IV
# Assay type: physicochemical
# Protocol: The stability of the tablets of Examples 6 to 9 and Comparative Example 9 above was evaluated. In addition, the stability was evaluated using HM781-36B itself as Comparative Example 11.
# Specifically, each of the tablets of Examples 6 to 9 and Comparative Example 9 above was packaged with Formpack® Dessiflex Blister (where to get: amcor), and the HM781-36B of Comparative Example 11 was packaged in an HDPE bottle, and then these were stored for 1, 2, and 4 weeks at a temperature of 60° C., which is a severe condition. The stability evaluation was performed for the samples stored for the above period according to the analysis conditions of Experimental Example 6.
smiles,measurement,setting,value
C=CC(=O)N1CCC(Oc2cc3c(Nc4ccc(Cl)c(Cl)c4F)ncnc3cc2OC)CC1 [Comparative Example 11],Amount of Impurity IV,"1 week, 60° C.",0.06%
same,Amount of Impurity IV,"2 weeks, 60° C.",0.07%
same,Stability (in words),"4 weeks under severe conditions, 60° C.",very stable results
same,Amount of Impurity IV,"4 weeks, 60° C.",0.07%
same,Amount of Impurity IV,"Initial, tablets in Formpack Dessiflex Blister, HM781-36B in HDPE bottle",0.06%
